Source: patent US20240148821A1, “PHARMACEUTICAL USE OF CYCLIC PEPTIDE COMPOUND” (CHUGAI SEIYAKU KABUSHIKI KAISHA, priority 2021, published 2024)
Numbered stars: 1 amine (or outer) side, 2 acyl side, 3 side chain; on linkers, the order of the positions; unused ones are H or OH. Bridge positions count the residues as written; N and C are the ends. Square brackets hold non-standard residues; d marks the D form. Peptide text beside a SMILES is read from it. * marks the point of attachment. hPhe(3-Cl-4-CF3) = N[C@@H](CCc1ccc(C(F)(F)F)c(Cl)c1)C(=O)O; hPhe(3-F,4-CF3) = N[C@@H](CCc1ccc(C(F)(F)F)c(F)c1)C(=O)O; NMePhe(4-CF3) = CN[C@@H](Cc1ccc(C(F)(F)F)cc1)C(=O)O; hPhe(4-CF3) = N[C@@H](CCc1ccc(C(F)(F)F)cc1)C(=O)O; 3Oxa8azabicyclo(3.2.1)octane = C1CC2COCC1N2*; NMePhe(4-Cl) = CN[C@@H](Cc1ccc(Cl)cc1)C(=O)O; NMePhe(4-Me) = CN[C@@H](Cc1ccc(C)cc1)C(=O)O; NMePhe(4-I) = CN[C@@H](Cc1ccc(I)cc1)C(=O)O; NMedβ3hAla = C[C@H](CC(=O)[*:2])N(C)[*:1]; NMeGly(cPent) = CN[C@H](C(=O)O)C1CCCC1; Pro(4,4-F2) = O=C(O)[C@@H]1CC(F)(F)CN1; NMeCha = CN[C@@H](CC1CCCCC1)C(=O)O; NEtLeu = CCN[C@@H](CC(C)C)C(=O)O; NMeAhp(2) = CCCCC[C@H](NC)C(=O)O; NMeChg = CN[C@H](C(=O)O)C1CCCCC1; NMeI = CC[C@H](C)[C@H](NC)C(=O)O; Gly(cBu) = N[C@H](C(=O)O)C1CCC1; NMeE = CN[C@@H](CCC(=O)O)C(=O)O; X43 = O=C(CN(CCCCCO)[*:1])[*:2]; NMeD = CN[C@@H](CC(=O)O)C(=O)O; NMeHpra = C#CCC[C@H](NC)C(=O)O; NMeL = CN[C@@H](CC(C)C)C(=O)O; NMeV = CN[C@H](C(=O)O)C(C)C; d(β3hA) = C[C@@H](N)CC(=O)O; NMeS = CN[C@@H](CO)C(=O)O; Morpholide = C1CN(*)CCO1; NMeA = CN[C@@H](C)C(=O)O; NMeAib = CNC(C)(C)C(=O)O; Piperidide = C1CCN(*)CC1; Pyrrolidide = C1CCN(*)C1; Ac5c = NC1(C(=O)O)CCCC1; Aze = O=C(O)[C@@H]1CCN1; Ac4c = NC1(C(=O)O)CCC1; Cyclopropyl = C1CC1*; NEtG = CCNCC(=O)O; Sar = CNCC(=O)O; Propyl = CCC*

Each molecule was assayed against protein-protein interaction between Kras and SOS1 (biotin-tagged human Kras loaded with GDP, His-tagged human SOS1) (Homo sapiens (Human), UniProt P01116, G12D) (assay: Protein-protein interaction inhibition between Kras and SOS1 (KrasG12D-SOS PPI) using AlphaScreen). Conditions: AlphaScreen; biotin-tagged human Kras loaded with GDP, His-tagged human SOS1; read-out: KRAS G12D-SOS PPI IC50.
Type: biochemical

SMILES	IC50 [nM]
CC[C@H](C)[C@@H]1NC(=O)[C@H](CC(C)C)N(C)C(=O)C[C@@H](C(=O)N2CCOCC2)N(C)C(=O)[C@H](C2CCCC2)N(C)C(=O)C2(CCCC2)NC(=O)[C@H](CCC(=O)N2CCCCC2)N(C)C(=O)[C@H](CCc2ccc(C(F)(F)F)c(Cl)c2)NC(=O)CN(C)C(=O)[C@H](CC2CCCCC2)N(C)C(=O)[C@@H]2CCN2C(=O)[C@H](C)N(C)C1=O [Compound 2112] ([NMeL]I[NMeA][Aze][NMeCha][Sar][hPhe(3-Cl-4-CF3)][NMeE](Piperidide)[Ac5c][NMeGly(cPent)][NMeD]-Morpholide; lactam N-11)	11
CC[C@H](C)[C@@H]1NC(=O)[C@H](CC(C)C)N(C)C(=O)C[C@@H](C(=O)N2CCCCC2)N(C)C(=O)[C@H](C2CCCCC2)N(C)C(=O)C2(CCCC2)NC(=O)CN(CCCCCO)C(=O)[C@H](CCc2ccc(C(F)(F)F)c(Cl)c2)NC(=O)CN(C)C(=O)[C@H](CC2CCCCC2)N(C)C(=O)CN(C)C(=O)CN(C)C1=O [Compound 2049, (11S,17S,26S,29S,33S,36S)-11-[2-[3-chloro-4-(trifluoromethyl)phenyl]ethyl]-36-cyclohexyl-17-(cyclohexylmethyl)-9-(5-hydroxypentyl)-29-isobutyl-15,18,21,24,30,34,37-heptamethyl-26-[(1S)-1-methylpropyl]-33-(piperidine-1-carbonyl)-6,9,12,15,18,21,24,27,30,34,37-undecazaspiro[4.33]octatriacontane-7,10,13,16,19,22,25,28,31,35,38-undecone] ([NMeL]I[Sar][Sar][NMeCha][Sar][hPhe(3-Cl-4-CF3)][X43][Ac5c][NMeChg][NMeD]-Piperidide; lactam N-11)	4
CC[C@H](C)[C@@H]1NC(=O)[C@H](CC(C)C)N(C)C(=O)C[C@@H](C(=O)N2CCCCC2)N(C)C(=O)[C@H]([C@@H](C)CC)N(C)C(=O)C2(CCCC2)NC(=O)[C@@H]2CCCN2C(=O)[C@H](CCc2ccc(C(F)(F)F)c(F)c2)NC(=O)CN(C)C(=O)[C@H](CC2CCCCC2)N(C)C(=O)[C@@H]2CCN2C(=O)[C@H](C)N(C)C1=O [Compound 409] ([NMeL]I[NMeA][Aze][NMeCha][Sar][hPhe(3-F,4-CF3)]P[Ac5c][NMeI][NMeD]-Piperidide; lactam N-11)	2.4
CCCCC[C@H]1C(=O)N[C@@H]([C@@H](C)CC)C(=O)N[C@@H](C)C(=O)N2CC[C@H]2C(=O)N(C)[C@@H](CC2CCCCC2)C(=O)N(C)CC(=O)N[C@@H](CCc2ccc(C(F)(F)F)c(Cl)c2)C(=O)N2CCC[C@H]2C(=O)NC2(CCCC2)C(=O)N(C)[C@@H](C2CCCC2)C(=O)N(C)[C@H](C(=O)N2CCOCC2)CC(=O)N1C [Compound 263] ([NMeAhp(2)]IA[Aze][NMeCha][Sar][hPhe(3-Cl-4-CF3)]P[Ac5c][NMeGly(cPent)][NMeD]-Morpholide; lactam N-11)	2.9
CC[C@H](C)[C@@H]1NC(=O)[C@H](CC(C)C)N(C)C(=O)C[C@@H](C(=O)N2CCCCC2)N(C)C(=O)[C@H](C(C)C)N(C)C(=O)C2(CCCC2)NC(=O)[C@@H]2CCCN2C(=O)[C@H](CCc2ccc(C(F)(F)F)c(Cl)c2)NC(=O)CN(C)C(=O)[C@H](CC2CCCCC2)N(C)C(=O)[C@@H]2CCN2C(=O)[C@H](COC2CC2)N(C)C1=O [Compound 676] ([NMeL]I[NMeS](Cyclopropyl)[Aze][NMeCha][Sar][hPhe(3-Cl-4-CF3)]P[Ac5c][NMeV][NMeD]-Piperidide; lactam N-11)	31
CC[C@H](C)[C@@H]1NC(=O)[C@H](CC(C)C)N(C)C(=O)C[C@@H](C)N(C)C(=O)[C@H]([C@@H](C)CC)N(C)C(=O)C2(CCC2)NC(=O)[C@@H]2CC(F)(F)CN2C(=O)[C@H](CCc2ccc(C(F)(F)F)c(Cl)c2)NC(=O)CN(C)C(=O)[C@H](Cc2ccc(C(F)(F)F)cc2)N(C)C(=O)[C@@H]2CCN2C(=O)[C@H](C)N(C)C1=O [Compound 462] (cyclo([Ac4c][NMeI][NMedβ3hAla][NMeL]I[NMeA][Aze][NMePhe(4-CF3)][Sar][hPhe(3-Cl-4-CF3)][Pro(4,4-F2)]))	12
CC[C@H](C)[C@@H]1NC(=O)[C@H](CC(C)C)N(CC)C(=O)C[C@@H](C(=O)N2CCOCC2)N(C)C(=O)[C@H]([C@@H](C)CC)N(C)C(=O)C2(CCCC2)NC(=O)[C@@H]2CCCN2C(=O)[C@H](CCc2ccc(C(F)(F)F)c(Cl)c2)NC(=O)CN(C)C(=O)[C@H](Cc2ccc(C(F)(F)F)cc2)N(C)C(=O)[C@@H]2CCN2C(=O)[C@H](C)NC1=O [Compound 1233] ([NEtLeu]IA[Aze][NMePhe(4-CF3)][Sar][hPhe(3-Cl-4-CF3)]P[Ac5c][NMeI][NMeD]-Morpholide; lactam N-11)	2.5
C#CCC[C@H]1C(=O)N[C@@H]([C@@H](C)CC)C(=O)N(C)[C@@H](C)C(=O)N2CC[C@H]2C(=O)N(C)[C@@H](Cc2ccc(I)cc2)C(=O)N(C)CC(=O)N[C@@H](CCc2ccc(C(F)(F)F)c(Cl)c2)C(=O)N2CCC[C@H]2C(=O)NC2(CCCC2)C(=O)N(C)[C@@H](C2CCCCC2)C(=O)N(C)[C@H](C)CC(=O)N1C [Compound 961] (cyclo([Ac5c][NMeChg][NMedβ3hAla][NMeHpra]I[NMeA][Aze][NMePhe(4-I)][Sar][hPhe(3-Cl-4-CF3)]P))	12
CC[C@H](C)[C@@H]1NC(=O)[C@H](CC(C)C)N(C)C(=O)C[C@@H](C(=O)N2CCOCC2)N(C)C(=O)[C@H]([C@@H](C)CC)N(C)C(=O)C2(CCCC2)NC(=O)[C@@H]2CCCN2C(=O)[C@H](CCc2ccc(C(F)(F)F)c(F)c2)NC(=O)CN(C)C(=O)[C@H](CC2CCCCC2)N(C)C(=O)[C@@H]2CCN2C(=O)[C@H](C)N(C)C1=O [Compound 790] ([NMeL]I[NMeA][Aze][NMeCha][Sar][hPhe(3-F,4-CF3)]P[Ac5c][NMeI][NMeD]-Morpholide; lactam N-11)	2.5
CC[C@H](C)[C@@H]1NC(=O)[C@H](CC(C)C)N(CC)C(=O)C[C@@H](C(=O)N(C)C)N(C)C(=O)[C@H]([C@@H](C)CC)N(C)C(=O)C2(CCCC2)NC(=O)[C@@H]2CCCN2C(=O)[C@H](CCc2ccc(C(F)(F)F)c(Cl)c2)NC(=O)CN(C)C(=O)[C@H](Cc2ccc(C)cc2)N(C)C(=O)[C@@H]2CCN2C(=O)[C@H](C)NC1=O [Compound 1287] ([NEtLeu]IA[Aze][NMePhe(4-Me)][Sar][hPhe(3-Cl-4-CF3)]P[Ac5c][NMeI][NMeD]-NMe2; lactam N-11)	1.1
CC[C@H](C)[C@@H]1NC(=O)[C@H](CC2CCCCC2)N(C)C(=O)C[C@@H](C)N(C)C(=O)[C@H](CC(C)C)NC(=O)C(C)(C)N(C)C(=O)[C@H](CC(C)C)NC(=O)[C@H](CCc2ccc(C(F)(F)F)cc2)NC(=O)CN(C)C(=O)[C@H](Cc2ccc(Cl)cc2)N(C)C(=O)CN(C)C(=O)CN(C)C1=O [Compound 595] (cyclo(I[Sar][Sar][NMePhe(4-Cl)][Sar][hPhe(4-CF3)]L[NMeAib]L[NMedβ3hAla][NMeCha]))	290
CCCCC[C@H]1C(=O)N[C@@H]([C@@H](C)CC)C(=O)N(C)[C@@H](C)C(=O)N2CC[C@H]2C(=O)N(C)[C@@H](COCCC)C(=O)N(C)CC(=O)N[C@@H](CCc2ccc(C(F)(F)F)c(Cl)c2)C(=O)N2CCC[C@H]2C(=O)NC2(CCCC2)C(=O)N(C)[C@@H](C2CCCC2)C(=O)N(C)[C@H](C(=O)N2C3CCC2COC3)CC(=O)N1C [Compound 622] ([NMeAhp(2)]I[NMeA][Aze][NMeS](Propyl)[Sar][hPhe(3-Cl-4-CF3)]P[Ac5c][NMeGly(cPent)][NMeD]-{3Oxa8azabicyclo(3.2.1)octane}; lactam N-11)	1.7
CC[C@H](C)[C@@H]1NC(=O)[C@H](CC(C)C)N(CC)C(=O)C[C@@H](C(=O)N2CCCC2)N(C)C(=O)[C@H]([C@@H](C)CC)N(C)C(=O)C2(CCCC2)NC(=O)[C@@H]2CCCN2C(=O)[C@H](CCc2ccc(C(F)(F)F)c(Cl)c2)NC(=O)CN(C)C(=O)[C@H](Cc2ccc(C(F)(F)F)cc2)N(C)C(=O)[C@@H]2CCN2C(=O)[C@H](C)NC1=O [Compound 1146] ([NEtLeu]IA[Aze][NMePhe(4-CF3)][Sar][hPhe(3-Cl-4-CF3)]P[Ac5c][NMeI][NMeD]-Pyrrolidide; lactam N-11)	1.9
CC[C@H](C)[C@@H]1NC(=O)[C@H](CC(C)C)N(C)C(=O)C[C@@H](C(=O)N2CCCC2)N(C)C(=O)[C@H](C(C)C)N(C)C(=O)C2(CCCC2)NC(=O)[C@@H]2CCCN2C(=O)[C@H](CCc2ccc(C(F)(F)F)c(Cl)c2)NC(=O)CN(C)C(=O)[C@H](Cc2ccc(C)cc2)N(C)C(=O)[C@@H]2CCN2C(=O)[C@H](C)N(C)C1=O [Compound 1866] ([NMeL]I[NMeA][Aze][NMePhe(4-Me)][Sar][hPhe(3-Cl-4-CF3)]P[Ac5c][NMeV][NMeD]-Pyrrolidide; lactam N-11)	2.8
CC[C@H](C)[C@@H]1NC(=O)[C@H](COC2CC2)N(C)C(=O)C[C@@H](C(=O)N2CCCCC2)N(C)C(=O)[C@H](C(C)C)N(C)C(=O)C2(CCCC2)NC(=O)[C@@H]2CCCN2C(=O)[C@H](CCc2ccc(C(F)(F)F)c(Cl)c2)NC(=O)CN(C)C(=O)[C@H](CC2CCCCC2)N(C)C(=O)[C@@H]2CCN2C(=O)[C@H](C)N(C)C1=O [Compound 1764] ([NMeS](Cyclopropyl)I[NMeA][Aze][NMeCha][Sar][hPhe(3-Cl-4-CF3)]P[Ac5c][NMeV][NMeD]-Piperidide; lactam N-11)	3.2
CCCOC[C@H]1C(=O)N(CC)CC(=O)N[C@@H](CCc2ccc(C(F)(F)F)c(Cl)c2)C(=O)N2CCC[C@H]2C(=O)NC2(CCCC2)C(=O)N(C)[C@@H](C2CCCC2)C(=O)N(C)[C@H](C(=O)N2C3CCC2COC3)CC(=O)N(C)[C@@H](CC(C)C)C(=O)N[C@@H]([C@@H](C)CC)C(=O)N(C)[C@@H](C)C(=O)N2CC[C@H]2C(=O)N1C [Compound 1338] ([NMeL]I[NMeA][Aze][NMeS](Propyl)[NEtG][hPhe(3-Cl-4-CF3)]P[Ac5c][NMeGly(cPent)][NMeD]-{3Oxa8azabicyclo(3.2.1)octane}; lactam N-11)	17
CC(C)C[C@H]1C(=O)N[C@@H](C2CCC2)C(=O)N(C)[C@@H](C)C(=O)N2CC[C@H]2C(=O)N(C)[C@@H](CC2CCCCC2)C(=O)N(C)CC(=O)N[C@@H](CCc2ccc(C(F)(F)F)c(Cl)c2)C(=O)N2CCC[C@H]2C(=O)NC2(CCCC2)C(=O)N(C)[C@@H](C(C)C)C(=O)N[C@H](C)CC(=O)N1C [Compound 580] (cyclo([Ac5c][NMeV][d(β3hA)][NMeL][Gly(cBu)][NMeA][Aze][NMeCha][Sar][hPhe(3-Cl-4-CF3)]P))	66
